According to paper PMC11487561 (ACS Chemical Neuroscience, 2024):

What was measured:
[1] = Intrinsic clearance in human liver microsomes; assay type: in vitro ADME
Procedure: Intrinsic Clearance in Rat and Human Liver Microsomes
The in vitro intrinsic clearance (CL int) was investigated in commercially obtained hepatic microsomes from rat and human donors using the substrate depletion (i.e., loss-of-parent vs. time, or t 1/2 method) approach with analyte detection via liquid chromatography-tandem mass spectrometry (LC-MS/MS). For each species, mean %parent remaining values at each time point were calculated from replicates raw data (analyte:IS peak area ratios) and used to determine in vitro t 1/2 and CLint.
Experiments were carried out using a robot-assisted (TECAN model Evo 200). Compound was incubated (1 µM final concentration) in buffer (100 mM potassium phosphate pH 7.4 with 3 mM MgCl2) containing hepatic microsomes (0.5 mg/mL final concentration) from multiple species, discretely, at 37 °C under constant orbital shaking. After 5 minutes (pre-incubation), reactions were initiated by addition of nicotinamide adenine dinucleotide phosphate (NADPH, 1 mM final concentration). At selected time intervals (0, 3, 7, 15, 25, and 45 minutes) post-addition of NADPH, aliquots (50 µL) were taken and placed into a 96-shallow-well plate containing ice cold acetonitrile (150 µL) with carbamazepine (IS, 50 nM). The plates were then centrifuged (3000 rcf at 4 °C) for 10 minutes. The supernatants were transferred to a new 96-shallow-well daughter plate and diluted (1:1 v/v) with water (Milli-Q filtered). The plates were then sealed in preparation for LC-MS/MS analysis (see below).
Raw LC-MS/MS peak area data generated from the assay samples were used to construct natural log-transformed %parent remaining vs. time plots (using t = 0 minute post-NADPH addition sample data as starting point set to 100%). In vitro compound half-life (t 1/2) values were obtained using the following […]
k is the slope from linear regression analysis of the natural log-transformed data (using means from Where all replicates at each time point). Resulting t 1/2 values were then used to calculate hepatic CLint values according to the following equation and with the use of species-specific scale-up factors for liver weight (grams) per total body weight (kg): […]
CLint = in vitro t1/2 x 0.5 mg microsomes x 1 gram liver x kg body wt aScale-up factors used are 45 (rat) and 20 (human).2
Predicted hepatic clearance (CLhep) was calculated using the following equation: […]
Qh represents hepatic blood flow (mL/min/kg): 21 for human, 70 for rat, and 90 for mouse.
Prepared samples were injected (10 µL each) onto an AB Sciex Triple Quad 4500 mass spectrometer system with an Agilent 1260 Infinity II pump and autosampler. Mass spectrometer conditions are described in Table S1. Quantitation of compounds was performed via AB Sciex Multiquant software using the raw analyte:IS peak area ratios. The typical detection range was 0.5 ng/mL to ≥ 5,000 ng/mL utilizing a quadratic equation regression with 1/x2 weighting. […]
Table S1. LC-MS/MS Conditions*
Mobile phase A 0.5% Formic Acid in Water
Mobile phase B 0.5% Formic Acid in Acetonitrile
Gradient Time % Mobile Phase B

[2] = Binding in brain homogenate from rat (equilibrium dialysis); assay type: in vitro ADME
Procedure: Binding in brain homogenate from rat.
Determination of fraction unbound (f u) in brain homogenate from rat was conducted using the same methodology and procedure than described for plasma protein binding assay with the following modifications: 1) a final compound concentration of 1 μM was used, 2) naïve rat brains were homogenized in DPBS (1:3 composition of brain: DPBS, w/w) using a Mini-Bead Beater™ machine in order to obtain […]
The diluted fraction unbound (f u2) in brain was calculated as (analyte to IS MS peak area ratio from Trans-buffer side) / (analyte to IS MS peak area ratio from Cis-brain homogenate side). Undiluted fraction unbound for the brain was calculated using the following equation: […]
Mean values for each species were calculated from 3 replicates. […]

[3] = biological target: T1, hKv1.5 (Homo sapiens, UniProt P22460); experiment: Cardiac Ion Channel Panel – Charles River (QPatch HT patch clamp); assay type: cell-based
T1 construct: Charles River Laboratories
Procedure: (§1) page 17: Table S3. Cardiac Ion Channel Panel - Charles River Laboratories for VU6016235 Ion Channel Concentration Mean % Standard Standard n (μM) Inhibition Deviation Error hCav1.2 10 13.9 8.9 5.1 3 hCav3.2 10 6.7 2.7 1.4 4 hHCN2 10 2.6 1.9 1.1 3 hERG 10 10.9 0.9 0.4 4 hKv1.5 10 1.3 1.8 0.9 4 […] 10 4.1 5.6 2.8 4 hKv1.3 10 9 2.9 1.7 3 hNav1.5 (Tonic) 10 5.8 0.6 0.4 3 […] (Phasic) The in vitro effects of VU6016235 were evaluated at room temperature using the QPatch HT® (Sophion Bioscience A/S, Denmark), an automatic parallel patch clamp system. VU6016235 was evaluated at a concentration of 10 μM and tested in at least 3 cells (n ≥ 3). The duration of exposure to each test article concentration was at least 5 minutes. Rat Amphetamine-Induced Hyperlocomotion (AHL) Protocol Male Harlan Sprague Dawley rats with a mean body weight of 240 g (range 221-264 g) were tested in SmartFrame Open Field locomotor activity test chambers to automatically record locomotor activity. All […] for an additional 30 min with either vehicle or a dose of VU6016235 or the comparator M 4 PAM […] Next, rats were injected subcutaneously with vehicle or a dose of 0.75 mg/kg amphetamine and then monitored for an additional 60 min. Changes in locomotor activity were recorded for a total of 120 min. Locomotor data were expressed as the number of photobeam breaks/5 min intervals across the 120-min test session or as the total ambulation, calculated as sum of photobeam beam breaks from the time of amphetamine administration (60 min) until the end of the study (120 min). Time course data were analyzed by two-way ANOVA with main effects of treatment and time; changes in total ambulation were analyzed by one-way ANOVA followed by Dunnett's post hoc test (GraphPad Prism 7 [GraphPad Software, San Diego, CA]). For all tests, α ≤ 0.05 was considered to represent statistical significance. Finally, percent reversal data were calculated in Microsoft Excel using the following formula: Percent Reversal = 100 - {[(total ambulation in individual animal from t = 60 to t = 120) / (mean total ambulation S17

[4] = biological target: T2, hNav1.5 (Phasic) (Homo sapiens, UniProt Q14524); experiment: as above; assay type: cell-based
T2 construct: Charles River Laboratories
Procedure: as §1

[5] = biological target: T3, hNav1.5 (Tonic) (Homo sapiens, UniProt Q14524); experiment: as above; assay type: cell-based
T3 construct: Charles River Laboratories
Procedure: as §1

[6] = biological target: Nicotinic Acetylcholine α1, Bungarotoxin (Homo sapiens, UniProt P02708+P07510+Q07001); experiment: Lead Profiling Screen – Eurofins Panlabs; assay type: binding; conditions: read-out: % inh at 10 μM
[7] = biological target: Platelet Activating Factor (PAF) (Homo sapiens, UniProt P25105); experiment: Lead Profiling Screen – Eurofins Panlabs; assay type: binding; conditions: read-out: % inh at 10 μM
[8] = biological target: Sigma σ1 (Homo sapiens, UniProt Q99720); experiment: Lead Profiling Screen – Eurofins Panlabs; assay type: binding; conditions: read-out: % inh at 10 μM

T3 sequence (Q14524 whole entry): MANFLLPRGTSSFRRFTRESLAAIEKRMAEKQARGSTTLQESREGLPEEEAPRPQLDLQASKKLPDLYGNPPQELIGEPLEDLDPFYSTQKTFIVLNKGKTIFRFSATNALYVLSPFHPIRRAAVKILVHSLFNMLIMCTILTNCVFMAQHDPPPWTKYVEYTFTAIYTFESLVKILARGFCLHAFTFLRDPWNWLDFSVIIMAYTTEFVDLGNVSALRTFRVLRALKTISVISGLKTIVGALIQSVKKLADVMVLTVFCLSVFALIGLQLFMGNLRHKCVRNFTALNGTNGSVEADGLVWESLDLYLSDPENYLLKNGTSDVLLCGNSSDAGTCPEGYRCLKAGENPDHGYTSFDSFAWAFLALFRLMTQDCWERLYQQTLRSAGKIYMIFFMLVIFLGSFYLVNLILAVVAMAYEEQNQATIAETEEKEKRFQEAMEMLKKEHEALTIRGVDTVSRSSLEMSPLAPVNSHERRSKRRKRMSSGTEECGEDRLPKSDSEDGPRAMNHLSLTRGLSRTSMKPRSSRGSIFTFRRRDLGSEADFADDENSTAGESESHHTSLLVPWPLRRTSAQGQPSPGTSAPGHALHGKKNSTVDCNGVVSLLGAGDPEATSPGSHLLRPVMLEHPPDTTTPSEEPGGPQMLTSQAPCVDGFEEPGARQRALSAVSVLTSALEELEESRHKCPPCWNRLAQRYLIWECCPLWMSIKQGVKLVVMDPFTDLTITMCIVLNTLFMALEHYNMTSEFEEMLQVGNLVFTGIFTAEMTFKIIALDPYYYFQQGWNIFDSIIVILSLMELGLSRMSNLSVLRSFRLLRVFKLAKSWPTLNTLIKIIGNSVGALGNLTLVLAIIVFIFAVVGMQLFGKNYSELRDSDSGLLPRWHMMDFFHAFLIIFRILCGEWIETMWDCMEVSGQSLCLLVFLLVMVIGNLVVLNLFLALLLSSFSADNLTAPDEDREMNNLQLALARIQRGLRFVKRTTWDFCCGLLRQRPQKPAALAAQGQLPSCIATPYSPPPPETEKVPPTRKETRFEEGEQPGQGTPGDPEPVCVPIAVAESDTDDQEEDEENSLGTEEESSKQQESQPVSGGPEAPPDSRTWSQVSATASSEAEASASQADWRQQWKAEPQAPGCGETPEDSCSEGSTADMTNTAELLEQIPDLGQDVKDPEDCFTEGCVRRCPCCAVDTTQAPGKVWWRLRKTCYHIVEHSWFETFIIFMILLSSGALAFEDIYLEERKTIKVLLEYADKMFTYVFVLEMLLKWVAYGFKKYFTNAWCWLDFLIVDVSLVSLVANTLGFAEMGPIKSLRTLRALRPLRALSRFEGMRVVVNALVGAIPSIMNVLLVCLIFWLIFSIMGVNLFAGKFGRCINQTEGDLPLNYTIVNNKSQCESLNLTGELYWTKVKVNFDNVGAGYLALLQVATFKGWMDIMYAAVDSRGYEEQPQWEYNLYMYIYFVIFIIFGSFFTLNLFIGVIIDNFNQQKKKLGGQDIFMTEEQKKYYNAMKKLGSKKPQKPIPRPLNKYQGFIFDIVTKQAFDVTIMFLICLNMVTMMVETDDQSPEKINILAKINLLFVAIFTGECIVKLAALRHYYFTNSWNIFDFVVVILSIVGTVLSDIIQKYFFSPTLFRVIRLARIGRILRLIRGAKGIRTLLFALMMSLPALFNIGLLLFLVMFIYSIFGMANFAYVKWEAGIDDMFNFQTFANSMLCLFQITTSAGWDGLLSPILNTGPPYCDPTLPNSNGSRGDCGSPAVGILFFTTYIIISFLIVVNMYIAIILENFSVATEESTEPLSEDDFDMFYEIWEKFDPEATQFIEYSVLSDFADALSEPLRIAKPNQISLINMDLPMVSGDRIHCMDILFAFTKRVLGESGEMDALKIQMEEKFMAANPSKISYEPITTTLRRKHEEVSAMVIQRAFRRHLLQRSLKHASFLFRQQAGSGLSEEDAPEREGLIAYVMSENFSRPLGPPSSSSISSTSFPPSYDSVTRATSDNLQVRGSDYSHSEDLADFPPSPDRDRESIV
T2 sequence (Q14524 whole entry): as above
T1 sequence (P22460 whole entry): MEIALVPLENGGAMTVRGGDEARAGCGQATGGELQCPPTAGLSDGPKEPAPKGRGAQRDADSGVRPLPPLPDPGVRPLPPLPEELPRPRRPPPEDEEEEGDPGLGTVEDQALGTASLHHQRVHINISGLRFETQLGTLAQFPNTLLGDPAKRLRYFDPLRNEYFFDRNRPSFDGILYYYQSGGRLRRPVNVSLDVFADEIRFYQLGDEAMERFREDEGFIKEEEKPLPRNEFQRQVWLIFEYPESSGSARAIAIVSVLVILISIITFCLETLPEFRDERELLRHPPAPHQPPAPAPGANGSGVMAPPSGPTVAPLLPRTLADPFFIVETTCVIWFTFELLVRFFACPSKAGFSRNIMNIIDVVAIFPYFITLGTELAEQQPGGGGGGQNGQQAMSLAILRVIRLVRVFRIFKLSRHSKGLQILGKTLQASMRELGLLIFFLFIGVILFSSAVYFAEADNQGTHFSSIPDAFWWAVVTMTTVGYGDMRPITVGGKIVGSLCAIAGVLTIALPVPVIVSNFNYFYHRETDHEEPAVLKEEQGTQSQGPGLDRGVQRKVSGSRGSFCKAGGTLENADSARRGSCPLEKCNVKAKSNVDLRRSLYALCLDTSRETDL
Platelet Activating Factor (PAF), sequence (P25105 whole entry): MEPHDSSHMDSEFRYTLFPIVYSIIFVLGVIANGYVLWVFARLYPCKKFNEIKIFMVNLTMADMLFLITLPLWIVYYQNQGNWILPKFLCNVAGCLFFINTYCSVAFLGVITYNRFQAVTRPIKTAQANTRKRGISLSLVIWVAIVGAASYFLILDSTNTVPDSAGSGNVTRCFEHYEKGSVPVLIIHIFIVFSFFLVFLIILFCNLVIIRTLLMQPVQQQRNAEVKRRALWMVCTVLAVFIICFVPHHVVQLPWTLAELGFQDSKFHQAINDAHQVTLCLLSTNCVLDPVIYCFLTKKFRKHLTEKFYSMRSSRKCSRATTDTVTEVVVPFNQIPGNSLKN

Cc1nc(C)c2c(n1)sc1c(NCc3ccc(C(C)(C)O)cc3)nccc12 [22g]
CLint scaled at 1 µM ([1]; pH 7.4, human liver microsomes): 26 mL/min/kg | CLhep, human ([1]; predicted hepatic clearance from microsomal CLint): 12 mL/min/kg | rat fbrain ([2]; fraction unbound, equilibrium dialysis, rat brain homogenates): 0.016 | fraction unbound at 6 h, 1 µM ([2]; rat, brain homogenate, in %, read-out: fu,brain (rat brain homogenate)): 0.01 to 0.05 | inhibition at 10 µM [3]: 1.3% | inhibition at 10 µM [4]: 6.9% | inhibition at 10 µM [5]: 5.8% | inhibition at 10 µM [6]: -8% | inhibition at 10 µM [7]: 7% | inhibition at 10 µM [8]: 3%
